In patent US20230096766A1, “AMINO ACID HAVING FUNCTIONAL GROUP CAPABLE OF INTERMOLECULAR HYDROGEN BONDING, PEPTIDE COMPOUND CONTAINING SAME AND METHOD FOR PRODUCTION THEREOF” (Chugai Seiyaku Kabushiki Kaisha, priority 2018, published 2023):
*1 amine or outer side, *2 acyl side, *3 side chain or, on linkers, in order; H or OH if unused. Where a SMILES comes first, the peptide text is derived from it. Bridges are numbered along the chain shown (N, C = ends). [ ]: non-standard residue; d: D form. The star is where a group is joined. NMeHph(3-OMe-4-CONHMe) = CNC(=O)c1ccc(CC[C@H](NC)C(=O)O)cc1OC; hPhe(3-OMe,4-CONHMe) = CNC(=O)c1ccc(CC[C@H](N)C(=O)O)cc1OC; NMePhe(3-Cl) = CN[C@@H](Cc1cccc(Cl)c1)C(=O)O; X12 = O=C([C@H](CCCC(O)C(F)(F)F)N[*:1])[*:2]; Tyr(3-F) = N[C@@H](Cc1ccc(O)c(F)c1)C(=O)O; NMehPhe = CN[C@@H](CCc1ccccc1)C(=O)O; Hyp = O=C(O)[C@@H]1C[C@@H](O)CN1; NMeF = CN[C@@H](Cc1ccccc1)C(=O)O; NMeI = CC[C@H](C)[C@H](NC)C(=O)O; Butyl(3-Me,3-OH) = CC(C)(O)CC*; CH2CONHtBu = CC(C)(C)NC(=O)C*; NMeL = CN[C@@H](CC(C)C)C(=O)O; Propyl(2R-OH) = C[C@@H](O)C*; NMeV = CN[C@H](C(=O)O)C(C)C; NMeAbu = CC[C@H](NC)C(=O)O; NMeA = CN[C@@H](C)C(=O)O; Piperidide = C1CCN(*)CC1; Abu = CC[C@H](N)C(=O)O; CH2CONHMe = CNC(=O)C*; Isopentyl = CC(C)CC*; NPrGly = CCCNCC(=O)O; Ethyl(2-OH) = OCC*; X3 = C[C@H](O)C*; Sar = CNCC(=O)O; tBu = CC(C)(C)*

Assay: in vitro
Conditions: human, Caco-2, Caco-2 (cm/sec)

SMILES	Papp [×10⁻⁶ cm/s]
CC(C)C[C@@H]1NC(=O)[C@H](CC(C)C)N(C)C(=O)[C@H](C)N(C)C(=O)[C@@H](C(C)C)NC(=O)C[C@@H](C(=O)N2CCCCC2)NC(=O)[C@H]([C@@H](C)O)NC(=O)[C@H](C)N(C)C(=O)[C@H](C)N(C)C(=O)[C@H](CC(C)C)N(C)C(=O)[C@H](Cc2ccc(O)c(F)c2)NC(=O)[C@H](Cc2ccccc2)N(C)C1=O [pd113] ([dV][NMeA][NMeL]L[NMeF][Tyr(3-F)][NMeL][NMeA][NMeA]TD-Piperidide; lactam N-11)	0.029
CC(C)C[C@@H]1NC(=O)[C@H](CC(C)C)N(C)C(=O)[C@H](CC(C)C)N(C)C(=O)[C@H](COC(C)(C)C)NC(=O)[C@H](CC(C)C)N(C)C(=O)[C@@H](C(C)C)NC(=O)C[C@@H](C(=O)N2CCCCC2)NC(=O)[C@H](CC(C)C)N(C)C(=O)[C@H](Cc2ccccc2)NC(=O)[C@@H]2C[C@@H](OCCO)CN2C(=O)[C@H]([C@@H](C)O)NC1=O [AP237] ([dV][NMeL]S(tBu)[NMeL][NMeL]LT[Hyp](Ethyl(2-OH))F[NMeL]D-Piperidide; lactam N-11)	1.3
CC(C)CCOC[C@@H]1NC(=O)[C@H](CC(C)C)N(C)C(=O)CN(C)C(=O)[C@H]([C@@H](C)O)NC(=O)[C@H](CC(C)C)N(C)C(=O)[C@H](COCCC(C)(C)O)NC(=O)[C@H](Cc2ccccc2)N(C)C(=O)[C@@H](C(C)C)NC(=O)C[C@@H](C(=O)N2CCCCC2)NC(=O)[C@H](CC(C)C)N(C)C(=O)[C@H](Cc2ccccc2)N(C)C1=O [AP51] ([dV][NMeF]S(Butyl(3-Me,3-OH))[NMeL]T[Sar][NMeL]S(Isopentyl)[NMeF][NMeL]D-Piperidide; lactam N-11)	1.4
CNC(=O)c1ccc(CC[C@@H]2NC(=O)[C@H](CC(C)C)N(C)C(=O)CN(C)C(=O)[C@H]([C@@H](C)O)NC(=O)[C@H](CC(C)C)N(C)C(=O)[C@H](CC(C)C)NC(=O)[C@H](Cc3ccccc3)N(C)C(=O)[C@@H](C(C)C)NC(=O)C[C@@H](C(=O)N3CCCCC3)NC(=O)[C@H](CC(C)C)N(C)C(=O)[C@H](CC(C)C)N(C)C2=O)cc1OC [AP200] ([dV][NMeF]L[NMeL]T[Sar][NMeL][hPhe(3-OMe,4-CONHMe)][NMeL][NMeL]D-Piperidide; lactam N-11)	0.88
CC[C@@H]1NC(=O)[C@H](CCc2ccc(C(=O)NC)c(OC)c2)N(C)C(=O)[C@H](CC(C)C)N(C)C(=O)[C@H](CC(C)C)NC(=O)[C@H](C)N(C)C(=O)C[C@@H](C(=O)N2CCCCC2)NC(=O)[C@H](CC(C)C)N(C)C(=O)CN(C)C(=O)[C@H]([C@@H](C)O)NC(=O)[C@H](CC(C)C)N(C)C(=O)[C@H](Cc2ccccc2)N(C)C1=O [AP229] ([NMeA]L[NMeL][NMeHph(3-OMe-4-CONHMe)][Abu][NMeF][NMeL]T[Sar][NMeL]D-Piperidide; lactam N-11)	0.43
CCCN1CC(=O)N(C)[C@@H](C)C(=O)N[C@H](C(=O)N2CCCCC2)CC(=O)N(C)[C@@H](CC(C)C)C(=O)N[C@@H](Cc2ccccc2)C(=O)N(C)[C@@H](CC(C)C)C(=O)N(C)[C@@H](CC(C)C)C(=O)N[C@@H](COCC(=O)NC(C)(C)C)C(=O)N(C)[C@@H](CCc2ccccc2)C(=O)N(C)[C@@H](CC(C)C)C(=O)N[C@@H]([C@@H](C)O)C1=O [AP15] ([NMeL]F[NMeL][NMeL]S(CH2CONHtBu)[NMehPhe][NMeL]T[NPrGly][NMeA]D-Piperidide; lactam N-11)	0.86
CC[C@H](C)[C@H]1C(=O)N[C@@H](C(C)C)C(=O)N(C)CC(=O)N(C)[C@@H](CC(C)C)C(=O)N[C@H](C(=O)N2CCCCC2)CC(=O)N(C)[C@@H](C)C(=O)N[C@@H](COC[C@@H](C)O)C(=O)N(C)[C@@H](CC(C)C)C(=O)N(C)[C@@H](Cc2ccccc2)C(=O)N[C@@H](CC(C)C)C(=O)N(C)[C@@H](Cc2ccccc2)C(=O)N1C [AP86] ([NMeA]S(Propyl(2R-OH))[NMeL][NMeF]L[NMeF][NMeI]V[Sar][NMeL]D-Piperidide; lactam N-11)	3.7
CCCN1CC(=O)N(C)[C@@H](CC(C)C)C(=O)N[C@@H](COC[C@H](C)O)C(=O)N(C)[C@@H](Cc2cccc(Cl)c2)C(=O)N(C)[C@@H](C(C)C)C(=O)N[C@H](C(=O)N2CCCCC2)CC(=O)N[C@H](C(C)C)C(=O)N(C)[C@@H](Cc2ccccc2)C(=O)N[C@@H](CC(C)C)C(=O)N(C)[C@@H](CC(C)C)C(=O)N[C@@H]([C@@H](C)O)C1=O [AP70] ([dV][NMeF]L[NMeL]T[NPrGly][NMeL]S(X3)[NMePhe(3-Cl)][NMeV]D-Piperidide; lactam N-11)	0.75

Same assay, conditions: human, Caco-2, Caco-2 (membrane permeability)

SMILES	Papp [×10⁻⁶ cm/s]
CC[C@H]1C(=O)N(C)[C@@H](Cc2ccccc2)C(=O)N[C@@H](CC(C)C)C(=O)N(C)[C@@H](Cc2ccccc2)C(=O)N(C)[C@@H](C(C)C)C(=O)N[C@@H](CCCC(O)C(F)(F)F)C(=O)N(C)CC(=O)N(C)[C@@H](CC(C)C)C(=O)N[C@H](C(=O)N2CCCCC2)CC(=O)N(C)[C@@H](C)C(=O)N[C@@H](CC(C)C)C(=O)N1C (stereo partly drawn) [Compound D14] ([NMeA]L[NMeAbu][NMeF]L[NMeF][NMeV][X12][Sar][NMeL]D-Piperidide; lactam N-11)	0.9
CCCN1CC(=O)N(C)[C@@H](CC(C)C)C(=O)N[C@H](C(=O)N2CCCCC2)CC(=O)N(C)[C@@H](CC(C)C)C(=O)N[C@@H](Cc2ccccc2)C(=O)N(C)[C@@H](CC(C)C)C(=O)N(C)[C@@H](CC(C)C)C(=O)N[C@@H](COCC(=O)NC)C(=O)N(C)[C@@H](CCc2ccccc2)C(=O)N(C)[C@@H](CC(C)C)C(=O)N[C@@H]([C@@H](C)O)C1=O [Compound I04] ([NMeL]F[NMeL][NMeL]S(CH2CONHMe)[NMehPhe][NMeL]T[NPrGly][NMeL]D-Piperidide; lactam N-11)	0.55
